Tested on: SREBP pathway
Assay: SREBP luciferase reporter gene system (SRE-luciferase assay)
Type: cell-based, human
Conditions: Huh-7/SRE-luc cells, sterol-deficient medium, 0.01-10 µM
Method in brief: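 Readout was SRE-driven luciferase normalised to GFP fluorescence in lysates of stably transfected Huh-7/SRE-luc hepatoma cells. Compounds (0.01, 0.03, 0.1, 0.3, 1.0, 3.0, 10 µM; DMSO control) were applied for 16 h in sterol-depleted medium with 2 µM lovastatin and 10 µM mevalonate; IC50 from variable-slope fit.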

| Structure (SMILES) | IC50 (Homo sapiens, Huh-7, 16 h) | IC50 (16 hours) |
| --- | --- | --- |
| COc1cc(F)c(C(O)CCC[C@@H](C)[C@H]2CC[C@H]3[C@H]4[C@H](CC[C@]23C)[C@@]2(C)CC[C@H](O)[C@H](O)[C@@H]2CC4(F)F)c(F)c1 (single isomer, unassigned) [Compound 205, (1R,3aS,3bS,5aR,6R,7S,9aR,9bS,11aR)-1-[(2R,6R)-6-(2,6-difluoro-4-methoxyphenyl)-6-hydroxyhexan-2-yl]-4,4-difluoro-9a,11a-dimethylhexadecahydro-1H-cyclopenta[1,2-a]phenanthrene-6,7-diol or (1R,3aS,3bS,5aR,6R,7S,9aR,9bS,11aR)-1-[(2R,6S)-6-(2,6-difluoro-4-methoxyphenyl)-6-hydroxyhexan-2-yl]-4,4-difluoro-9a,11a-dimethylhexadecahydro-1H-cyclopenta[1,2-a]phenanthrene-6,7-diol] | 0.107 µM |  |
| C[C@H](CCC[C@@H](O)c1cccc2c1cnn2C)[C@H]1CC[C@H]2C3=C(F)C[C@H]4[C@@H](O)[C@@H](O)CC[C@]4(C)[C@H]3CC[C@]12C [Compound 253, (1R,3aR,5aR,6R,7S,9aR,9bR,11aR)-4-fluoro-1-[(2R,6R)-6-hydroxy-6-(1-methylindazol-4-yl)hexan-2-yl]-9a,11a-dimethyl-2,3,3a,5,5a,6,7,8,9,9a,9b,10,11,11a-tetradecahydro-1H-cyclopenta[1,2-a]phenanthrene-6,7-diol] | 0.016 µM |  |
| COc1cccc(C(O)CCC[C@@H](C)[C@H]2CC[C@H]3C4=C(F)C[C@H]5[C@@H](O)[C@@H](O)CC[C@]5(C)[C@H]4CC[C@]23C)c1 (stereo partly drawn) [Compound 40, (1R,3aR,5aR,6R,7S,9aR,9bR,11aR)-4-fluoro-1-[(2R)-6-hydroxy-6-(3-methoxyphenyl)hexan-2-yl]-9a,11a-dimethyl-2,3,3a,5,5a,6,7,8,9,9a,9b,10,11,11a-tetradecahydro-1H-cyclopenta[1,2-a]phenanthrene-6,7-diol] | 0.25 µM |  |
| C[C@H](CCCC(O)c1[nH]ncc1F)[C@H]1CC[C@H]2[C@H]3[C@H](CC[C@]12C)[C@@]1(C)CC[C@H](O)[C@H](O)[C@@H]1CC3(F)F (stereo partly drawn) [Compound 237, (1R,3aS,3bS,5aR,6R,7S,9aR,9bS,11aR)-4,4-difluoro-1-[(2R)-6-(4-fluoro-2H-pyrazol-3-yl)-6-hydroxyhexan-2-yl]-9a,11a-dimethylhexadecahydro-1H-cyclopenta[1,2-a]phenanthrene-6,7-diol] | 0.726 µM |  |
| COc1cccc(F)c1C(O)CCC[C@@H](C)[C@H]1CC[C@H]2[C@H]3[C@H](CC[C@]12C)[C@@]1(C)CC[C@H](O)C(=O)[C@@H]1CC3(F)F (stereo partly drawn) [Compound 124, (1R,3aS,3bS,5aR,7S,9aR,9bS,11aR)-4,4-difluoro-1-[(2R)-6-(2-fluoro-6-methoxyphenyl)-6-hydroxyhexan-2-yl]-7-hydroxy-9a,11a-dimethylhexadecahydro-1H-cyclopenta[1,2-a]phenanthren-6-one] | 0.064 µM |  |
| COc1ncc(F)cc1C(O)CCC[C@@H](C)[C@H]1CC[C@H]2[C@H]3[C@H](CC[C@]12C)[C@@]1(C)CC[C@H](O)[C@H](O)[C@@H]1CC3(F)F (stereo partly drawn) [Compound 151, (1R,3aS,3bS,5aR,6R,7S,9aR,9bS,11aR)-4,4-difluoro-1-[(2R)-6-(5-fluoro-2-methoxypyridin-3-yl)-6-hydroxyhexan-2-yl]-9a,11a-dimethylhexadecahydro-1H-cyclopenta[1,2-a]phenanthrene-6,7-diol] | 0.18 µM |  |
| C[C@H](CCCC(O)c1ccc(F)nc1F)[C@H]1CC[C@H]2[C@H]3[C@H](CC[C@]12C)[C@@]1(C)CC[C@H](O)[C@H](O)[C@@H]1CC3(F)F (single isomer, unassigned) [Compound 226, (1R,3aS,3bS,5aR,6R,7S,9aR,9bS,11aR)-1-[(2R,6S)-6-(2,6-difluoropyridin-3-yl)-6-hydroxyhexan-2-yl]-4,4-difluoro-9a,11a-dimethylhexadecahydro-1H-cyclopenta[1,2-a]phenanthrene-6,7-diol or (1R,3aS,3bS,5aR,6R,7S,9aR,9bS,11aR)-1-[(2R,6R)-6-(2,6-difluoropyridin-3-yl)-6-hydroxyhexan-2-yl]-4,4-difluoro-9a,11a-dimethylhexadecahydro-1H-cyclopenta[1,2-a]phenanthrene-6,7-diol] |  | 0.1 µM |
| C[C@H](CCCC(O)c1ccc(F)nc1OCc1ccccc1)[C@H]1CC[C@H]2[C@H]3[C@H](CC[C@]12C)[C@@]1(C)CC[C@H](O)[C@H](O)[C@@H]1CC3(F)F (stereo partly drawn) [Compound 281, (1R,3aS,3bS,5aR,6R,7S,9aR,9bS,11aR)-1-[(2R)-6-[2-(benzyloxy)-6-fluoropyridin-3-yl]-6-hydroxyhexan-2-yl]-4,4-difluoro-9a,11a-dimethylhexadecahydro-1H-cyclopenta[1,2-a]phenanthrene-6,7-diol] | 0.479 µM |  |
| C[C@H](CCCC(O)c1cccc2[nH]ncc12)[C@H]1CC[C@H]2[C@H]3[C@H](CC[C@]12C)[C@@]1(C)CC[C@H](O)[C@H](O)[C@@H]1CC3(F)F (single isomer, unassigned) [Compound 274, (1R,3aS,3bS,5aR,6R,7S,9aR,9bS,11aR)-4,4-difluoro-1-[(2R,6R)-6-hydroxy-6-(1H-indazol-4-yl)hexan-2-yl]-9a,11a-dimethylhexadecahydro-1H-cyclopenta[1,2-a]phenanthrene-6,7-diol or (1R,3aS,3bS,5aR,6R,7S,9aR,9bS,11aR)-4,4-difluoro-1-[(2R,6S)-6-hydroxy-6-(1H-indazol-4-yl)hexan-2-yl]-9a,11a-dimethylhexadecahydro-1H-cyclopenta[1,2-a]phenanthrene-6,7-diol] |  | 0.758 µM |
| C[C@H](CCCC(O)c1c2ccccc2nn1C)[C@H]1CC[C@H]2[C@H]3[C@H](CC[C@]12C)[C@@]1(C)CC[C@H](O)[C@H](O)[C@@H]1CC3(F)F (stereo partly drawn) [Compound 325, (1R,3aS,3bS,5aR,6R,7 S,9aR,9bS,11aR)-4,4-Difluoro-1-[(2R)-6-hydroxy-6-(2-methylindazol-3-yl)hexan-2-yl]-9a,11a-dimethylhexadecahydro-1H-cyclopenta[1,2-a]phenanthrene-6,7-diol] | 0.148 µM |  |
| COc1ccnc(C[C@H](O)CCC[C@@H](C)[C@H]2CC[C@H]3[C@H]4[C@H](CC[C@]23C)[C@@]2(C)CC[C@H](O)[C@H](O)[C@@H]2CC4(F)F)c1 (stereo in doubt) [Compound 305, (1R,3aS,3bS,5aR,6R,7S,9aR,9bS,11aR)-4,4-difluoro-1-[(2R,6R)-6-hydroxy-7-(4-methoxypyridin-2-yl)heptan-2-yl]-9a,11a-dimethylhexadecahydro-1H-cyclopenta[1,2-a]phenanthrene-6,7-diol] | 0.253 µM |  |
| COc1cc(F)cc(OC)c1C(O)CCC[C@@H](C)[C@H]1CC[C@H]2[C@H]3[C@H](CC[C@]12C)[C@@]1(C)CC[C@H](O)[C@H](O)[C@@H]1CC3(F)F (single isomer, unassigned) [Compound 225, (1R,3aS,3bS,5aR,6R,7S,9aR,9bS,11aR)-4,4-difluoro-1-[(2R,6R)-6-(4-fluoro-2,6-dimethoxyphenyl)-6-hydroxyhexan-2-yl]-9a,11a-dimethylhexadecahydro-1H-cyclopenta[1,2-a]phenanthrene-6,7-diol or (1R,3aS,3bS,5aR,6R,7S,9aR,9bS,11aR)-4,4-difluoro-1-[(2R,6S)-6-(4-fluoro-2,6-dimethoxyphenyl)-6-hydroxyhexan-2-yl]-9a,11a-dimethylhexadecahydro-1H-cyclopenta[1,2-a]phenanthrene-6,7-diol] |  | 0.175 µM |
| C[C@H](CCCC(O)c1cccc2cn[nH]c12)[C@H]1CC[C@H]2C3=C(F)C[C@H]4[C@@H](O)[C@@H](O)CC[C@]4(C)[C@H]3CC[C@]12C (stereo partly drawn) [Compound 270, (1R,3aR,5aR,6R,7S,9aR,9bR,11aR)-4-fluoro-1-[(2R)-6-hydroxy-6-(1H-indazol-7-yl)hexan-2-yl]-9a,11a-dimethyl-2,3,3a,5,5a,6,7,8,9,9a,9b,10,11,11a-tetradecahydro-1H-cyclopenta[1,2-a]phenanthrene-6,7-diol] | 0.259 µM |  |
| C[C@H](CCC[C@H](O)c1cc2ccccc2o1)[C@H]1CC[C@H]2[C@H]3[C@H](CC[C@]12C)[C@@]1(C)CC[C@H](O)[C@H](O)[C@@H]1CC3(F)F [Compound 316, (1R,3aS,3bS,5aR,6R,7S,9aR,9bS,11aR)-1-[(2R,6S)-6-(1-benzofuran-2-yl)-6-hydroxyhexan-2-yl]-4,4-difluoro-9a,11a-dimethylhexadecahydro-1H-cyclopenta[1,2-a]phenanthrene-6,7-diol] | 0.145 µM |  |
| COc1cccc(F)c1[C@H](F)CCC[C@@H](C)[C@H]1CC[C@H]2[C@H]3[C@H](CC[C@]12C)[C@@]1(C)CC[C@H](O)[C@H](O)[C@@H]1CC3(F)F (single isomer, unassigned) [Compound 216] | 2.65 µM |  |
| C[C@H](CCCC(O)c1ccc(F)nc1OCC1COC1)[C@H]1CC[C@H]2[C@H]3[C@H](CC[C@]12C)[C@@]1(C)CC[C@H](O)[C@H](O)[C@@H]1CC3(F)F (stereo partly drawn) [Compound 383, (1R,3aS,3bS,5aR,6R,7S,9aR,9bS,11aR)-4,4-difluoro-1-[(2R)-6-{6-fluoro-2-[(oxetan-3-ylmethyl)oxy]pyridin-3-yl}-6-hydroxyhexan-2-yl]-9a,11a-dimethylhexadecahydro-1H-cyclopenta[1,2-a]phenanthrene-6,7-diol] | 0.041 µM |  |
| C[C@H](CCCC(O)c1cccc2c1nnn2C)[C@H]1CC[C@H]2[C@H]3[C@H](CC[C@]12C)[C@@]1(C)CC[C@H](O)[C@H](O)[C@@H]1CC3(F)F (single isomer, unassigned) [Compound 291, (1R,3aS,3bS,5aR,6R,7S,9aR,9bS,11aR)-4,4-difluoro-1-[(2R,6R)-6-hydroxy-6-(1-methylbenzo[d][1,2,3]triazol-4-yl)hexan-2-yl]-9a,11a-dimethylhexadecahydro-1H-cyclopenta[1,2-a]phenanthrene-6,7-diol or (1R,3aS,3bS,5aR,6R,7S,9aR,9bS,11aR)-4,4-difluoro-1-[(2R,6S)-6-hydroxy-6-(1-methylbenzo[d][1,2,3]triazol-4-yl)hexan-2-yl]-9a,11a-dimethylhexadecahydro-1H-cyclopenta[1,2-a]phenanthrene-6,7-diol] |  | 0.141 µM |
